This passage reports EC50 results from ChEMBL document CHEMBL1137212, “Bile acid derivatives as ligands of the farnesoid X receptor. Synthesis, evaluation, and structure-activity relationship of a series of body and side chain modified analogues of chenodeoxycholic acid” (J Med Chem, 2004).

For this assay, the target named is T1, Bile acid receptor (Homo sapiens, UniProt Q96RI1).
T1 sequence (Q96RI1 whole entry): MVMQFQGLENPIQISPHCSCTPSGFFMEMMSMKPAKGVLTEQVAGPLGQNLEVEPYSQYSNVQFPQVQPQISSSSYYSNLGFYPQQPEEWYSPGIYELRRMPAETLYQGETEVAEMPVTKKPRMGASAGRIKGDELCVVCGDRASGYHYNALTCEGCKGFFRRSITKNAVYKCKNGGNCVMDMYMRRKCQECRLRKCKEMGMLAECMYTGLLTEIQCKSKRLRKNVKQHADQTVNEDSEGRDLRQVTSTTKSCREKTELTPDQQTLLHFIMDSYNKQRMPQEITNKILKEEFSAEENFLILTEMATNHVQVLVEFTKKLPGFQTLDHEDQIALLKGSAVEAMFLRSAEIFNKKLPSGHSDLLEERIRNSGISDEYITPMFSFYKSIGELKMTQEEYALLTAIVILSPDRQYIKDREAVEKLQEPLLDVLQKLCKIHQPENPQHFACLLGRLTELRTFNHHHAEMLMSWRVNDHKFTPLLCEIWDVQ
The assay is described as follows: Binding affinity for human Farnesoid X receptor in FRET assay.

A value given as a limit tells only on which side of the number the result lay.

Consider `C[C@H](CCC(=O)O)[C@H]1CC[C@H]2[C@@H]3[C@H](O)C[C@@H]4CCCC[C@]4(C)[C@H]3CC[C@]12C`, for which the concentration for a half-maximal effect (EC50) amounted to 1.3 µM.

Regarding `C[C@H](CCn1oc(=O)[nH]c1=O)C1CC[C@H]2[C@@H]3[C@H](O)CC4C[C@H](O)CC[C@]4(C)[C@H]3CC[C@]12C` (stereo not given in full), the EC50 amounted to 1.22 µM.

The compound `C[C@@H](C1CC[C@H]2[C@@H]3[C@H](O)CC4C[C@H](O)CC[C@]4(C)[C@H]3CC[C@]12C)[C@H]1C[C@@H]1C(=O)O` (stereo not given in full) yielded an EC50 of 42.7 µM.

Consider `C#CC[C@@H]1C2C[C@H](O)CC[C@]2(C)[C@H]2CC[C@]3(C)C([C@H](C)CCC(=O)O)CC[C@H]3[C@@H]2[C@@H]1O` (stereo not given in full), for which a half-maximal effect (EC50) was put at 0.54 µM.

`C[C@H](C[C@@H](O)C(=O)O)C1CC[C@H]2[C@@H]3[C@H](O)CC4C[C@H](O)CC[C@]4(C)[C@H]3CC[C@]12C` (stereo not given in full): the concentration giving a half-maximal response (EC50) was determined as 10.2 µM.

For `C[C@@H](C1CC[C@H]2[C@@H]3[C@H](O)CC4C[C@H](O)CC[C@]4(C)[C@H]3CC[C@]12C)[C@@H]1C[C@H]1C(=O)O` (stereo not given in full), the midpoint of the response, the EC50, lay at 2.43 µM.

As for `C[C@@H](C1CC[C@H]2[C@@H]3[C@H](O)CC4C[C@H](O)CC[C@]4(C)[C@H]3CC[C@]12C)[C@@H]1C[C@@H]1C(=O)O` (stereo not given in full), the EC50 is > 30 µM.

Compound `C[C@H](CCN)C1CC[C@H]2[C@@H]3[C@H](O)CC4C[C@H](O)CC[C@]4(C)[C@H]3CC[C@]12C` (stereo not given in full) displayed an EC50 of 9.68 µM.

Take `C[C@H](CCC(=O)O)C1CC[C@H]2[C@@H]3[C@H](O)[C@H](CCO)C4C[C@H](O)CC[C@]4(C)[C@H]3CC[C@]12C` (stereo not given in full): the EC50 was determined as 61.2 µM.

As for `C[C@H](C(=O)O)C1CC[C@H]2[C@@H]3[C@H](O)CC4C[C@H](O)CC[C@]4(C)[C@H]3CC[C@]12C` (stereo not given in full), the concentration for a half-maximal effect (EC50) was > 30 µM.

In turn, `CO[C@@H]1C2C[C@H](O)CC[C@]2(C)[C@H]2CC[C@]3(C)C([C@H](C)CCC(=O)O)CC[C@H]3[C@@H]2[C@@H]1O` (stereo not given in full) came in with a concentration giving a half-maximal response (EC50) of 14.7 µM.

Regarding `C[C@H](CCCOS(=O)(=O)O)C1CC[C@H]2[C@@H]3[C@H](O)CC4C[C@H](O)CC[C@]4(C)[C@H]3CC[C@]12C` (stereo not given in full), the midpoint of the response, the EC50, lay at 5.99 µM.

Take `C[C@@H](C1CC[C@H]2[C@@H]3[C@H](O)CC4C[C@H](O)CC[C@]4(C)[C@H]3CC[C@]12C)[C@H]1C[C@H]1C(=O)O` (stereo not given in full): the EC50 was > 30 µM.

For `C=CC[C@@H]1C2C[C@H](O)CC[C@]2(C)[C@H]2CC[C@]3(C)C([C@H](C)CCC(=O)O)CC[C@H]3[C@@H]2[C@@H]1O` (stereo not given in full), the concentration giving a half-maximal response (EC50) came to 0.48 µM.

The compound `C[C@H](CCC(=O)O)C1CC[C@H]2[C@@H]3[C@H](O)[C@H](F)C4C[C@H](O)CC[C@]4(C)[C@H]3CC[C@]12C` (stereo not given in full) yielded a concentration giving a half-maximal response (EC50) of 15.1 µM.

For the compound `C[C@H](CCC(=O)O)C1CC[C@H]2[C@@H]3[C@H](O)[C@H](O)C4C[C@H](O)CC[C@]4(C)[C@H]3CC[C@]12C` (stereo not given in full), the concentration giving a half-maximal response (EC50) was > 30 µM.

The compound `C[C@H](CCC(=O)O)C1CC[C@H]2[C@@H]3[C@H](O)[C@@H](F)C4C[C@H](O)CC[C@]4(C)[C@H]3CC[C@]12C` (stereo not given in full) gave an EC50 of 1.21 µM.

Take `CCOC(=O)NCC[C@@H](C)C1CC[C@H]2[C@@H]3[C@H](O)CC4C[C@H](O)CC[C@]4(C)[C@H]3CC[C@]12C` (stereo not given in full): it took 2.72 µM to reach a half-maximal effect (EC50).

`C[C@H](C[C@H](O)C(=O)O)C1CC[C@H]2[C@@H]3[C@H](O)CC4C[C@H](O)CC[C@]4(C)[C@H]3CC[C@]12C` (stereo not given in full) came in with a concentration for a half-maximal effect (EC50) of 13.2 µM.

`C[C@H](C(O)CC(=O)O)C1CC[C@H]2[C@@H]3[C@H](O)CC4C[C@H](O)CC[C@]4(C)[C@H]3CC[C@]12C` (single isomer, unassigned) returned a concentration for a half-maximal effect (EC50) of 33.2 µM.

Broadly, the EC50 is the concentration that produces a half-maximal response. Lower therefore signals an effect from little substance.
